{
  "source": "patent US20100240674A1",
  "about": "(priority 2007, published 2010)",
  "key": {"[1]": {"tested_on": "NPC mice", "assay": "Hanging Test (locomotor activity)", "format": "in vivo", "settings": "50 mg/Kg daily intraperitoneally for 28 days, vs saline", "description": "To test locomotor activity, the Hanging Test that has been validated for these mice was used (Voikar et al., 2002). For this test a score from 0 to 5 was assigned to the mice based on their motor capabilities. To determine the score, the animal is observed during 30 seconds, a value is assigned according to the following scale: 0, if it falls before 10 seconds; 1, if it hangs from the bar with its fore paws; 2, if it tries to climb on the bar with its hind paws; 3, if it grabs the bar with its fore paws and one or two hind paws; 4, if it grabs the bar with all four paws and its tail; and 5, if it actively escapes from the bar and reaches one of the ends of the bar."}, "[2]": {"tested_on": "cerebellar Purkinje neurons", "description": "In all experiments discussed herein, “NPC mice” refers to mice deficient in the NPC1 protein or NPC1−/−. In FIG. 1, the cerebellums of 4 week old NPC mice and wild type mice are shown at a, b, g and h. The cerebellums of 6 week old NPC mice and wild type mice are shown at c, d, i and j. The cerebellums of 8 week old NPC mice and wild type mice are shown at e, f, k and l. The immunohistochemical procedures utilized were: anti-c-Abl, (K12; 1:500) and anti-p73 (H-79; 1:250) (Santa Cruz Biotech, Santa Cruz, Calif.), and anti-calbindin D-28K (1:1,000). Immunohistochemical procedures were carried out by means of histological stain on floating sections. Immunocytochemistry was performed using the avidin biotin horseradish peroxidase complex (ABC) method (Vector Laboratories, Burlingame, Calif.) and sections were mounted on gelatin pre-coated slides and air-dried, then dehydrated in graded ethanol and finally covered with Permount.\nThe immunohistochemical protocols used are the same as those described above relating to FIG. 1.\nThe following process was used for in situ apoptosis detection: the terminal deoxynucleotidyl transferase mediated deoxyuridine-biotin (dUTP) nick end labeling (TUNEL) was performed using the apoptosis detection kit purchased from Roche Molecular Biochemicals (Mannheim, Germany). The sections were first incubated in a blocking solution containing 3% H2O2 in methanol. Afterward, slices were incubated in 0.1% Triton X-100 in 0.1% sodium citrate over-night at RT to increase the permeability. After being washed twice in PBS, pH 7.4, the sections were immersed in the TUNEL reaction mixture, containing dUTP-fluorescein and terminal deoxynucleotidyl transferase (TdT) conjugated for 60 minutes at 37° C. in a dark, humid atmosphere. The process was terminated by washing the sections twice in PBS buffer. For the immunofluorescence (IF) sections slides were incubated overnight with rabbit polyclonal anti-calbindin D-28K (1:1,000; Chemicon International, Temecula, Calif.). […] Fluorescent images were captured with an Olympus BX51 microscope and analyzed with IMAGE pro-express."}, "[3]": {"tested_on": "cerebella of NPC mice", "assay": "TUNEL immunofluorescence apoptosis analysis on cerebella", "settings": "50 mg/Kg daily intraperitoneally for 28 days, vs saline"}},
  "note": "Where a name gives a salt, the structure may show the parent alone.",
  "data": [
    {"compound": "Cc1ccc(NC(=O)c2ccc(CN3CCN(C)CC3)cc2)cc1Nc1nccc(-c2cccnc2)n1", "note": "[imatinib mesylate, 4-(4-methylpiperazin-1-ylmethyl)-N-[4-methyl-3-((4-pyridin-3-yl)(pyrimidin-2-ylamino)phenyl]benzamide methanesulfonate]", "values": [
      {"measurement": "Hanging Test score", "setting": "[1]; NPC mice", "result": "increased the scores"},
      {"measurement": "effect on locomotor activity (Hanging Test)", "setting": "[1]; wild type mice", "result": "does not affect the locomotor activity"},
      {"measurement": "calbindin positive areas for Purkinje neurons", "setting": "[2]; NPC mice, 50 mg/Kg daily intraperitoneally for 28 days, immunofluorescence", "result": "significant increase"},
      {"measurement": "death of Purkinje neurons (calbindin immunohistochemistry)", "setting": "[2]; NPC mice, 50 mg/Kg daily intraperitoneally for 28 days, vs saline", "result": "reduces the death of Purkinje neurons"},
      {"measurement": "calbindin staining", "setting": "[2]; mouse, in vivo, ip, 50 mg/kg", "result": "does not affect the calbindin staining"},
      {"measurement": "apoptosis in cerebella (TUNEL)", "setting": "[3]", "result": "decreases apoptosis"},
      {"measurement": "number of TUNEL positive cells", "setting": "[3]", "result": "significantly less"}
    ]}
  ]
}
